Reference: patent publication US10597388B2, “Pyridazinone herbicides” (FMC CORPORATION, priority 2014, dated 2020)

Tests used:
Test in all cases: Test E greenhouse herbicide test, pre- and postemergence
Assay type in all cases: in vivo
[1] = tested on: Italian ryegrass (Lolium multiflorum)
Summary of the method: (§1)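 For each species, sown seed in silt loam and young plants (2 to 18 cm) in a peat/vermiculite medium were each treated with compound dissolved in surfactant-containing, non-phytotoxic solvent. After 14 to 21 d under greenhouse conditions, effects were visually rated, 100 meaning complete control.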

[2] = tested on: barnyardgrass (Echinochloa crus-galli)
Summary of the method: as §1

[3] = tested on: beggarticks (hairy beggarticks, Bidens pilosa)
Summary of the method: as §1

[4] = tested on: crabgrass, Brazilian (Brazilian crabgrass, Digitaria horizontalis)
Summary of the method: as §1

[5] = tested on: crabgrass, large (large crabgrass, Digitaria sanguinalis); settings: Preemergence
Summary of the method: as §1

[6] = tested on: dayflower (Virginia (VA) dayflower, Commelina virginica)
Summary of the method: as §1

[7] = tested on: foxtail, giant (giant foxtail, Setaria faberii); settings: Preemergence
Summary of the method: as §1

[8] = tested on: foxtail, green (green foxtail, Setaria viridis); settings: Preemergence
Summary of the method: as §1

[9] = tested on: johnsongrass (Sorghum halepense); settings: Preemergence
Summary of the method: as §1

kochia (Kochia scoparia) = tested on: kochia (Kochia scoparia)
Summary of the method: as §1

[10] = tested on: lambsquarters (Chenopodium album); settings: Preemergence
Summary of the method: as §1

[11] = tested on: nutsedge, yellow (yellow nutsedge, Cyperus esculentus); settings: Preemergence
Summary of the method: as §1

[12] = tested on: panicum, fall (fall panicum, Panicum dichotomiflorum)
Summary of the method: as §1

[13] = tested on: ragweed (common ragweed, Ambrosia elatior)
Summary of the method: as §1

[14] = tested on: sandbur (southem sandbur, Cenchrus echinatus)
Summary of the method: as §1

[15] = tested on: velvetleaf (Abutilon theophrasti); settings: Preemergence
Summary of the method: as §1

[16] = tested on: waterhemp (common waterhemp, Amaranthus rudis)
Summary of the method: as §1

[17] = 62 g ai/ha, Postemergence, scale 0 to 100 (0 no effect, 100 complete control)
[18] = 62 g ai/ha, Preemergence, scale 0 to 100 (0 no effect, 100 complete control)
[19] = 125 g ai/ha, Postemergence, scale 0 to 100 (0 no effect, 100 complete control)
[20] = 125 g ai/ha, Preemergence, scale 0 to 100 (0 no effect, 100 complete control)
[21] = 250 g ai/ha, Postemergence, scale 0 to 100 (0 no effect, 100 complete control)
[22] = Postemergence, 31 g ai/ha, visual, scale 0 no effect to 100 complete control
[23] = Preemergence, 31 g ai/ha, scale 0 to 100, 0 no effect, 100 complete control
[24] = Preemergence, 250 g ai/ha, visual, scale 0 no effect to 100 complete control
[25] = 62 g ai/ha, scale 0 to 100 (0 no effect, 100 complete control)
[26] = 125 g ai/ha, scale 0 to 100 (0 no effect, 100 complete control)
[27] = 31 g ai/ha, scale 0 to 100, 0 no effect, 100 complete control
[28] = 250 g ai/ha, visual, scale 0 no effect to 100 complete control

COC(=O)Oc1c(C)nn(C)c(=O)c1-c1c(C)sc2c(C)cc(C)cc12 [Compound 81]
Plant response rating, Ryegrass, Italian [1, 17]: 70
Plant response rating, Ryegrass, Italian [1, 18]: 95
Plant response rating, Ryegrass, Italian [1, 19]: 75
Plant response rating, Ryegrass, Italian [1, 20]: 90
Plant response rating, Ryegrass, Italian [1, 21]: 80
Plant response rating, Ryegrass, Italian [1, 22]: 50
Plant response rating, Ryegrass, Italian [1, 23]: 75
Plant response rating, Ryegrass, Italian [1, 24]: 100
Plant response rating, Barnyardgrass [2, 17]: 20
Plant response rating, Barnyardgrass [2, 18]: 25
Plant response rating, Barnyardgrass [2, 19]: 30
Plant response rating, Barnyardgrass [2, 20]: 35
Plant response rating, Barnyardgrass [2, 21]: 50
Plant response rating, Barnyardgrass [2, 22]: 20
Plant response rating, Barnyardgrass [2, 23]: 0
Plant response rating, Barnyardgrass [2, 24]: 75
Plant response rating, Beggarticks [3, 17]: 100
Plant response rating, Beggarticks [3, 18]: 100
Plant response rating, Beggarticks [3, 19]: 100
Plant response rating, Beggarticks [3, 20]: 100
Plant response rating, Beggarticks [3, 21]: 100
Plant response rating, Beggarticks [3, 22]: 90
Plant response rating, Beggarticks [3, 23]: 80
Plant response rating, Beggarticks [3, 24]: 100
Plant response rating, Crabgrass, Brazil [4, 17]: 40
Plant response rating, Crabgrass, Brazil [4, 18]: 95
Plant response rating, Crabgrass, Brazil [4, 19]: 50
Plant response rating, Crabgrass, Brazil [4, 20]: 90
Plant response rating, Crabgrass, Brazil [4, 21]: 50
Plant response rating, Crabgrass, Brazil [4, 22]: 40
Plant response rating, Crabgrass, Brazil [4, 23]: 65
Plant response rating, Crabgrass, Brazil [4, 24]: 100
Plant response rating, Crabgrass, Large [5, 25]: 75
Plant response rating, Crabgrass, Large [5, 26]: 90
Plant response rating, Crabgrass, Large [5, 27]: 50
Plant response rating, Crabgrass, Large [5, 28]: 98
Plant response rating, Dayflower, VA [6, 17]: 70
Plant response rating, Dayflower, VA [6, 18]: 15
Plant response rating, Dayflower, VA [6, 19]: 80
Plant response rating, Dayflower, VA [6, 20]: 35
Plant response rating, Dayflower, VA [6, 21]: 80
Plant response rating, Dayflower, VA [6, 22]: 60
Plant response rating, Dayflower, VA [6, 23]: 10
Plant response rating, Dayflower, VA [6, 24]: 65
Plant response rating, Foxtail, Giant [7, 25]: 98
Plant response rating, Foxtail, Giant [7, 26]: 98
Plant response rating, Foxtail, Giant [7, 27]: 75
Plant response rating, Foxtail, Giant [7, 28]: 100
Plant response rating, Foxtail, Green [8, 25]: 70
Plant response rating, Foxtail, Green [8, 26]: 95
Plant response rating, Foxtail, Green [8, 27]: 20
Plant response rating, Foxtail, Green [8, 28]: 100
Plant response rating, Johnsongrass [9, 25]: 90
Plant response rating, Johnsongrass [9, 26]: 65
Plant response rating, Johnsongrass [9, 27]: 70
Plant response rating, Johnsongrass [9, 28]: 100
Plant response rating, Kochia (kochia (Kochia scoparia); [17]): 70
Plant response rating, Kochia (kochia (Kochia scoparia); [18]): 20
Plant response rating, Kochia (kochia (Kochia scoparia); [19]): 70
Plant response rating, Kochia (kochia (Kochia scoparia); [20]): 35
Plant response rating, Kochia (kochia (Kochia scoparia); [21]): 75
Plant response rating, Kochia (kochia (Kochia scoparia); [22]): 60
Plant response rating, Kochia (kochia (Kochia scoparia); [23]): 0
Plant response rating, Kochia (kochia (Kochia scoparia); [24]): 100
Plant response rating, Lambsquarters [10, 25]: 100
Plant response rating, Lambsquarters [10, 26]: 100
Plant response rating, Lambsquarters [10, 27]: 98
Plant response rating, Lambsquarters [10, 28]: 100
Plant response rating, Nutsedge, Yellow [11, 25]: 30
Plant response rating, Nutsedge, Yellow [11, 26]: 80
Plant response rating, Nutsedge, Yellow [11, 27]: 35
Plant response rating, Nutsedge, Yellow [11, 28]: 90
Plant response rating, Panicum, Fall [12, 17]: 80
Plant response rating, Panicum, Fall [12, 18]: 100
Plant response rating, Panicum, Fall [12, 19]: 85
Plant response rating, Panicum, Fall [12, 20]: 100
Plant response rating, Panicum, Fall [12, 21]: 90
Plant response rating, Panicum, Fall [12, 22]: 85
Plant response rating, Panicum, Fall [12, 23]: 98
Plant response rating, Panicum, Fall [12, 24]: 100
Plant response rating, Ragweed [13, 17]: 60
Plant response rating, Ragweed [13, 18]: 100
Plant response rating, Ragweed [13, 19]: 85
Plant response rating, Ragweed [13, 20]: 100
Plant response rating, Ragweed [13, 21]: 80
Plant response rating, Ragweed [13, 22]: 60
Plant response rating, Ragweed [13, 23]: 90
Plant response rating, Ragweed [13, 24]: 100
Plant response rating, Sandbur [14, 18]: 40
Plant response rating, Sandbur [14, 19]: 70
Plant response rating, Sandbur [14, 20]: 70
Plant response rating, Sandbur [14, 21]: 75
Plant response rating, Sandbur [14, 22]: 60
Plant response rating, Sandbur [14, 23]: 10
Plant response rating, Sandbur [14, 24]: 90
Plant response rating, Velvetleaf [15, 25]: 70
Plant response rating, Velvetleaf [15, 26]: 90
Plant response rating, Velvetleaf [15, 27]: 10
Plant response rating, Velvetleaf [15, 28]: 95
Plant response rating, Waterhemp [16, 18]: 90
Plant response rating, Waterhemp [16, 19]: 60
Plant response rating, Waterhemp [16, 20]: 90
Plant response rating, Waterhemp [16, 21]: 75
Plant response rating, Waterhemp [16, 22]: 50
Plant response rating, Waterhemp [16, 23]: 60
Plant response rating, Waterhemp [16, 24]: 90
